Reference: ChEMBL document CHEMBL3507680, “University of Dundee, Gates Library screen for HepG2 cell viability”

Experiment: Human HepG2 cell viability assay in 384 well format
Format: toxicity, cell-based
Parameters: dose 125 nL, time 70.5 hour; concentration not given beside the values
Details: HepG2 cells, read-out: Inhibition

SMILES | cytotoxicity at 70.5 h [%]
Cc1n[nH]c(CN2CCN(CC3CC3)[C@@H]3CS(=O)(=O)C[C@@H]32)n1 | 44.8
CCN(CC)c1ncnc2c1CCN(C(=O)Cc1ccccn1)CC2 | -1.31
CC(CN1CCCCCC1)NCc1nncn1C1CCCCC1 (stereo unspecified) | -6.55
CCC(=O)N1CCC(c2nc3ccc(NC(C)C)cn3n2)CC1 | 4.46
FC(F)(F)c1c[nH]c(C2CCN(c3ncccn3)CC2)n1 | -15.4
COc1ccccc1CN1CCC(c2nn(CCN)c3nccnc23)C1 (stereo unspecified) | -0.747
CCc1nnsc1C(=O)NCCC1CN(C(C)C)CCO1 (stereo unspecified) | -7.17
CC(Cc1ccco1)NC(=O)CCn1cccn1 (stereo unspecified) | -14.7
O=C(NCc1ccco1)[C@@]12CCO[C@@H]1CCN(Cc1ccccn1)C2 | -3.48
Cc1ncsc1CNc1cccc(OCCN2CCCC2)c1 | 1.28
CC(C)Cc1ncc2c(n1)CN(C(=O)c1ccc(CN3CCCC3)o1)C2 | -7.27
N#CCCN(C(=O)CN1CCCC1c1cccs1)c1ccccc1F (stereo unspecified) | 1.76
O=C(NC(CO)CO)c1coc(COc2cccc(F)c2)n1 | -13
COc1cc(CN(Cc2ccccn2)CC(C)C)cc2c1OCO2 | -0.968
COCCNC(=O)C1CN(Cc2ccsc2)Cc2ccnn2C1 (stereo unspecified) | 1.38
Cc1ccc(NC(=O)CCC2CC2)cc1N1CCOC1=O | -10.8
O=C1C(CS(=O)(=O)Nc2ccc(Cl)cc2)=NC(=O)n2cccc21 | -26.2
CCc1ncc2c(n1)CN(CCCOc1ccc(C#N)cc1)CC2 | -0.432
CN(C)CC1CCCCN1C(=O)c1ccc(N2CCOCC2)cc1 (stereo unspecified) | 0.118
O=C(CN(Cc1ccccc1)CC1CCOCC1)Nc1nccs1 | -0.217
CN(CCNC(=O)Nc1cnn(C)c1)Cc1ccc(F)cc1 | -20.9
COc1ccc(C(=O)N(C)Cc2nnc3ccccn23)cc1 | 10.4
COc1cccc(CCNC(=O)CN2CCN(C)CC2C)c1 (stereo unspecified) | -17.1

SMILES | cytotoxicity at 70.5 h [%]
O=C(CCc1nccs1)N1CCN(c2ccc(Cl)cn2)CC1 | -5.57
CO[C@H]1[C@@H]2CC[C@H]1CN(c1nc(C)nc3ccsc13)C2 | 19.4
COCC(=O)N1C[C@H]2CNC[C@@]2(C(=O)NCc2cc(C)n[nH]2)C1 | -5.27
CC(NC(=O)CSCC(N)=O)c1ccccc1Oc1ccccc1 (stereo unspecified) | 16.5
CNS(=O)(=O)CC(=O)N(Cc1c(F)cccc1F)C1CCCC1 | 1.88
CC(c1ccccc1Cl)N(C(=O)CSCC(N)=O)C1CC1 (stereo unspecified) | 12.5
CCCSc1ncccc1C(=O)NCc1ccc(N(C)C)cc1 | 18.5
CC(=O)NCc1ccc(S(=O)(=O)NC(=O)c2ccc3c(c2)COC3)s1 | 0.101
O=C(c1cc(C2CCCCN2C(=O)C2CCC2)n[nH]1)N1CCOCC1 (stereo unspecified) | 18.8
COCCNC(=O)Cn1c(-c2ccco2)cc2cccnc21 | -8.41
CN1CCCN(C(=O)NCc2csc(Br)c2)CC1 | -6.63
Cc1noc(C)c1CN1CCC(NC(=O)OC(C)(C)C)CC1 | -0.745
COc1ccccc1CNC(C)c1ccc(-n2ccnc2)cc1 (stereo unspecified) | 32.7
Cc1cc(C)c(C(=O)NCCNc2ncnc3ccccc23)c(=O)[nH]1 | -2.04
Cn1nnc2cc(C(=O)NS(=O)(=O)c3ccc(F)cc3)ccc21 | -3.7
Fc1cnc(N2CCOC3(CCN(Cc4cccs4)CC3)C2)nc1 | -6.76
Cc1oncc1C(=O)N1CCC2(CC1)CN(S(C)(=O)=O)c1ccccc12 | -3.56
COCCOc1ccc(CNC2CCc3ncnn3C2)cc1OC (stereo unspecified) | -9.82
CCn1cc(CN2CCCN(C3Cc4ccccc4C3)CC2)c(C)n1 | 24.3
Cc1noc(C)c1CN1CCN(Cc2nc(C3CC3)no2)CC1 | -12.8
Cc1ccc(CN2CCNC(=O)C2CC(=O)N2CCSCC2)o1 (stereo unspecified) | 2.5
COC1CCN(c2ccc(F)cc2CN(C)S(C)(=O)=O)CC1 | -8.29
Fc1ccc(-c2cnc(CNC3CCc4ncnn4C3)o2)cc1 (stereo unspecified) | -8.23
